Test results as given in PMC4140839 (PLoS ONE, 2014).

Target: T1, RsASML (Ralstonia pseudosolanacearum, UniProt Q8XPM9)
T1 construct: gene RSp1609
Assay: biochemical

T1 sequence (Q8XPM9 30-476 limits assumed): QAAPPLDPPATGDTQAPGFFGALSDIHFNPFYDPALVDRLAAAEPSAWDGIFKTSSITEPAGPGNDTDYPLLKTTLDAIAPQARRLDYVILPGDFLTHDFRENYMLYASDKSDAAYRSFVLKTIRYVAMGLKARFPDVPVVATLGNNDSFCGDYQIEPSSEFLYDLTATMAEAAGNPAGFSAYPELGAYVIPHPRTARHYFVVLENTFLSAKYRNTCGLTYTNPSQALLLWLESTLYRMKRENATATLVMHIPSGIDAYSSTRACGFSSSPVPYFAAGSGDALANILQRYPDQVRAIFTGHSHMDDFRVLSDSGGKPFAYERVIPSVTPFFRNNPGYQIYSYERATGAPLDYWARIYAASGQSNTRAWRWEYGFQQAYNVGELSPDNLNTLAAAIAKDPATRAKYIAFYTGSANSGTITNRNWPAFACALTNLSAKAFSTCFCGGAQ

Compound	IC50 [µM]
O=P(O)(O)OC[C@H](O)CO [L-α-glycerolphosphate]	746
Nc1nc2c(ncn2[C@@H]2O[C@H](COP(=O)(O)OP(=O)(O)OP(=O)(O)O)[C@@H](O)[C@H]2O)c(=O)[nH]1 [GTP]	44.2
NC(=O)c1ccc[n+]([C@@H]2O[C@H](COP(=O)(O)OP(=O)(O)OC[C@H]3O[C@@H](n4cnc5c(N)ncnc54)[C@H](O)[C@@H]3O)[C@@H](O)[C@H]2O)c1 [NAD^+]	0.0663
Nc1ncnc2c1ncn2[C@@H]1O[C@H](COP(=O)(O)O)[C@@H](O)[C@H]1O [AMP]	0.075
Nc1ncnc2c1ncn2[C@@H]1O[C@H](COP(=O)(O)OP(=O)(O)OP(=O)(O)O)[C@@H](O)[C@H]1O [ATP]	0.0586
Nc1ccn([C@@H]2O[C@H](COP(=O)(O)OP(=O)(O)OP(=O)(O)O)[C@@H](O)[C@H]2O)c(=O)n1 [CTP]	1500
C[N+](C)(C)CCOP(=O)([O-])O [Phosphocholine]	4430
C[N+](C)(C)CCOP(=O)([O-])OC[C@H](O)CO [L-α-glycerolphosphocholine]	64.6
Nc1ncnc2c1ncn2[C@@H]1O[C@H](CO)[C@@H](O)[C@H]1O [Adenosine]	243
NC(=O)C1=CN([C@@H]2O[C@H](COP(=O)(O)OP(=O)(O)OC[C@H]3O[C@@H](n4cnc5c(N)ncnc54)[C@H](OP(=O)(O)O)[C@@H]3O)[C@@H](O)[C@H]2O)C=CC1 [β-NADPH]	52.1
O=c1ccn([C@@H]2O[C@H](COP(=O)(O)OP(=O)(O)OP(=O)(O)O)[C@@H](O)[C@H]2O)c(=O)[nH]1 [UTP]	1360
Cc1cn([C@H]2C[C@H](O)[C@@H](COP(=O)(O)OP(=O)(O)OP(=O)(O)O)O2)c(=O)[nH]c1=O [TTP]	201
Nc1ncnc2c1ncn2[C@@H]1O[C@H](COP(=O)(O)OP(=O)(O)O)[C@@H](O)[C@H]1O [ADP]	0.0705
O=P(O)(O)O [Phosphate]	265
Cc1cn([C@H]2C[C@H](O)[C@@H](COP(=O)(O)O)O2)c(=O)[nH]c1=O [TMP]	35.9
